Measurements as given in US20030104507A1, “Method for detection of ATP” (priority 2001, published 2003).

System: ATPase activity endogenous to L929 cell lysate
Assay: Detergent inhibition of ATPase endogenous to L929 cell lysate (ATP remaining by luciferase luminescence, 22° C.)
Assay type: biochemical
Design: key to Relative ATPase Activity, slope det/slope lysate: slope with detergent / slope without; ≥1.0 = 100% activity, 0.5 = 50%
Method in brief: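 L929 lysate (1.5×10^5 cells/ml, four freeze–thaw cycles) held with detergent at final 1.0, 0.5, 0.1 or 0.05% at 22° C; remaining ATP read over time with luciferase-luciferin reagent (100 μM luciferin, 10 mM MgSO4, pH 7.5). Relative ATPase activity = slope of log % ATP remaining vs time with detergent ÷ slope for lysate-only control.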

[1] = Example 2, 0.02% detergent, 5 min
[2] = Example 2, 0.02% detergent, 75 min
[3] = Example 2, 0.02% detergent, 169 min
[4] = Example 2, 0.02% detergent, 222 min
[5] = Example 2, 0.02% detergent, 260 min
[6] = Example 2, 0.002% detergent, 5 min
[7] = Example 2, 0.002% detergent, 75 min
[8] = Example 2, 0.002% detergent, 169 min
[9] = Example 2, 0.002% detergent, 222 min
[10] = Example 2, 0.002% detergent, 260 min
[11] = Example 2, 0.01% detergent, 5 min
[12] = Example 2, 0.01% detergent, 75 min
[13] = Example 2, 0.01% detergent, 169 min
[14] = Example 2, 0.01% detergent, 222 min
[15] = Example 2, 0.01% detergent, 260 min

`CCCCCCCCCCCC[N+](C)(C)Cc1ccccc1.[Br-]` [BDDABr, Benzyldimethyldodecylammonium bromide] was tested, and the “Relative ATPase Activity, slope det/slope lysate” value (0.02 percent detergent) was 0.623, the “Slope (log percent ATP remaining vs time in minutes)” value (0.02 percent detergent) was −0.0039 and the “Average Relative Light Unit Values” (0.05% detergent, 5 min) was 7077.46 rlu. For the same compound, the “Percent ATP Remaining” value (0.05% detergent, 5 min) was 100%, the “Average Relative Light Unit Values” (0.05% detergent, 75 min) was 4539.97 rlu and the “Percent ATP Remaining” value (0.05% detergent, 75 min) was 64.1%. For the same compound, the “Average Relative Light Unit Values” (0.05% detergent, 169 min) was 2465.57 rlu, the “Percent ATP Remaining” value (0.05% detergent, 169 min) was 34.8% and the “Average Relative Light Unit Values” (0.05% detergent, 222 min) was 1680.16 rlu. For the same compound, the “Percent ATP Remaining” value (0.05% detergent, 222 min) was 23.7%, the “Average Relative Light Unit Values” (0.05% detergent, 260 min) was 1233.82 rlu and the “Percent ATP Remaining” value (0.05% detergent, 260 min) was 17.4%. The “Relative ATPase Activity, slope det/slope lysate” value (0.05 percent detergent) was 0.528, the “Slope (log percent ATP remaining vs time in minutes)” value (0.05 percent detergent) was −0.0030 and the “Average Relative Light Unit Values” (0.1% detergent, 5 min) was 7069.08 rlu. The “Percent ATP Remaining” value (0.1% detergent, 5 min) was 100%, the “Average Relative Light Unit Values” (0.1% detergent, 75 min) was 5136.92 rlu and the “Percent ATP Remaining” value (0.1% detergent, 75 min) was 72.7%. For the same compound, the “Average Relative Light Unit Values” (0.1% detergent, 169 min) was 3260.59 rlu, the “Percent ATP Remaining” value (0.1% detergent, 169 min) was 46.1% and the “Average Relative Light Unit Values” (0.1% detergent, 222 min) was 2366.49 rlu. The “Percent ATP Remaining” value (0.1% detergent, 222 min) was 33.5%, the “Average Relative Light Unit Values” (0.1% detergent, 260 min) was 1767.58 rlu and the “Percent ATP Remaining” value (0.1% detergent, 260 min) was 25.0%. The “Relative ATPase Activity, slope det/slope lysate” value (0.10 percent detergent) was 0.414, the “Slope (log percent ATP remaining vs time in minutes)” value (0.10 percent detergent) was −0.0023 and the “Average Relative Light Unit Values” (0.5% detergent, 5 min) was 122.47 rlu. For the same compound, the “Percent ATP Remaining” value (0.5% detergent, 5 min) was 100%, the “Average Relative Light Unit Values” (0.5% detergent, 75 min) was 107.39 rlu and the “Percent ATP Remaining” value (0.5% detergent, 75 min) was 87.7%. The “Average Relative Light Unit Values” (0.5% detergent, 169 min) was 93.92 rlu, the “Percent ATP Remaining” value (0.5% detergent, 169 min) was 76.2% and the “Average Relative Light Unit Values” (0.5% detergent, 222 min) was 96.68 rlu. The “Percent ATP Remaining” value (0.5% detergent, 222 min) was 78.9%, the “Average Relative Light Unit Values” (0.5% detergent, 260 min) was 101.11 rlu and the “Percent ATP Remaining” value (0.5% detergent, 260 min) was 82.6%. For the same compound, the “Relative ATPase Activity, slope det/slope lysate” value (0.50 percent detergent) was 0.064, the “Slope (log percent ATP remaining vs time in minutes)” value (0.50 percent detergent) was −0.0004 and the “Average Relative Light Unit Values” (1.0% detergent, 5 min) was 0.49 rlu. The “Average Relative Light Unit Values” (1.0% detergent, 75 min) was 0.51 rlu, the “Average Relative Light Unit Values” (1.0% detergent, 169 min) was 0.44 rlu and the “Average Relative Light Unit Values” (1.0% detergent, 222 min) was 0.42 rlu. The “Average Relative Light Unit Values” (1.0% detergent, 260 min) was 0.43 rlu, the “Average Relative Light Unit Values” [1] was 6215.32 rlu and the “Percent ATP Remaining” value [1] was 100.00%. The “Average Relative Light Unit Values” [2] was 2686.49 rlu, the “Percent ATP Remaining” value [2] was 48.53% and the “Average Relative Light Unit Values” [3] was 962.85 rlu. The “Percent ATP Remaining” value [3] was 21.51%, the “Average Relative Light Unit Values” [4] was 604.47 rlu and the “Percent ATP Remaining” value [4] was 13.18%. The “Average Relative Light Unit Values” [5] was 429.86 rlu and the “Percent ATP Remaining” value [5] was 9.74%.
With `CCCCCCCCCCCCOS(=O)(=O)[O-].[Na+]` [SDS, Sodium dodecyl sulfate] the “Relative ATPase Activity, slope det/slope lysate” value (0.002 percent detergent) was 1.010, the “Slope (log percent ATP remaining vs time in minutes)” value (0.002 percent detergent) was −0.0064 and the “Relative ATPase Activity, slope det/slope lysate” value (0.01 percent detergent) was 0.702. The “Slope (log percent ATP remaining vs time in minutes)” value (0.01 percent detergent) was −0.00385, the “Average Relative Light Unit Values” (0.05% detergent, 5 min) was 1181.17 rlu and the “Percent ATP Remaining” value (0.05% detergent, 5 min) was 100%. The “Average Relative Light Unit Values” (0.05% detergent, 75 min) was 1060.03 rlu, the “Percent ATP Remaining” value (0.05% detergent, 75 min) was 89.7% and the “Average Relative Light Unit Values” (0.05% detergent, 169 min) was 949.7 rlu. The “Percent ATP Remaining” value (0.05% detergent, 169 min) was 80.4%, the “Average Relative Light Unit Values” (0.05% detergent, 222 min) was 921.86 rlu and the “Percent ATP Remaining” value (0.05% detergent, 222 min) was 78.0%. For the same compound, the “Average Relative Light Unit Values” (0.05% detergent, 260 min) was 803.0 rlu, the “Percent ATP Remaining” value (0.05% detergent, 260 min) was 68.0% and the “Relative ATPase Activity, slope det/slope lysate” value (0.05 percent detergent) was 0.105. The “Slope (log percent ATP remaining vs time in minutes)” value (0.05 percent detergent) was −0.0006, the “Average Relative Light Unit Values” (0.1% detergent, 5 min) was 0.31 rlu and the “Average Relative Light Unit Values” (0.1% detergent, 75 min) was 0.18 rlu. For the same compound, the “Average Relative Light Unit Values” (0.1% detergent, 169 min) was 0.21 rlu, the “Average Relative Light Unit Values” (0.1% detergent, 222 min) was 0.26 rlu and the “Average Relative Light Unit Values” (0.1% detergent, 260 min) was 0.34 rlu. The “Average Relative Light Unit Values” (0.5% detergent, 5 min) was 0.00 rlu, the “Average Relative Light Unit Values” (0.5% detergent, 75 min) was 0.00 rlu and the “Average Relative Light Unit Values” (0.5% detergent, 169 min) was 0.02 rlu. The “Average Relative Light Unit Values” (0.5% detergent, 222 min) was 0.00 rlu, the “Average Relative Light Unit Values” (0.5% detergent, 260 min) was 0.00 rlu and the “Average Relative Light Unit Values” (1.0% detergent, 5 min) was 0.01 rlu. The “Average Relative Light Unit Values” (1.0% detergent, 75 min) was 0.00 rlu, the “Average Relative Light Unit Values” (1.0% detergent, 169 min) was 0.01 rlu and the “Average Relative Light Unit Values” (1.0% detergent, 222 min) was 0.00 rlu. For the same compound, the “Average Relative Light Unit Values” (1.0% detergent, 260 min) was 0.01 rlu, the “Average Relative Light Unit Values” [6] was 5773.39 rlu and the “Percent ATP Remaining” value [6] was 100.00%. The “Average Relative Light Unit Values” [7] was 1574.34 rlu, the “Percent ATP Remaining” value [7] was 27.27% and the “Average Relative Light Unit Values” [8] was 278.67 rlu. The “Percent ATP Remaining” value [8] was 4.83%, the “Average Relative Light Unit Values” [9] was 236.28 rlu and the “Percent ATP Remaining” value [9] was 4.09%. For the same compound, the “Average Relative Light Unit Values” [10] was 128.58 rlu, the “Percent ATP Remaining” value [10] was 2.23% and the “Average Relative Light Unit Values” [11] was 13116.20 rlu. The “Percent ATP Remaining” value [11] was 100.00%, the “Average Relative Light Unit Values” [12] was 10753.03 rlu and the “Percent ATP Remaining” value [12] was 48.62%. The “Average Relative Light Unit Values” [13] was 12051.63 rlu, the “Percent ATP Remaining” value [13] was 25.80% and the “Average Relative Light Unit Values” [14] was 11822.03 rlu. For the same compound, the “Percent ATP Remaining” value [14] was 14.20%, the “Average Relative Light Unit Values” [15] was 11900.73 rlu and the “Percent ATP Remaining” value [15] was 8.79%. For the same compound, the “times more ATP present in the sample after four hours when the detergent was present than when it was absent” value (SDS 0.05%, deoxycholate 0.5% and 0.1%) was “about three to about twenty” and the “concentrations which resulted in a 25% or greater decrease in the relative ATPase activity” value (compared to reactions in the absence of detergent) was ≥ 0.01%.
